The target in this experiment is T1, Bcl-xL (Homo sapiens, UniProt Q07817).
T1 construct: endogenous in cells; host or cells: IR-SC WI38 cells
Kind of experiment: Protein degradation assay (western blot) in IR-SC WI38 cells. Format: cell-based. To be noted: increasing concentrations for 18 hours (FIG. 3A); fixed concentration for increasing times (FIG. 3B). How it is done: IR-SC WI38 cells were incubated with vehicle or increasing concentrations of XZ-14439 for 18 hours at increasing […] (FIG. 3A) and at a fixed concentration of XZ-14439 for increasing times (FIG. 3B). The cells were digested with 0.25% trypsin and 1 mM EDTA, and harvested in RIPA lysis buffer with 1% Phosphatase Inhibitor Cocktail 3 and 1% Protease Inhibitor Cocktail. An equal amount of protein (15-30 μg/lane) from each cell extract was resolved on a 12% SDS-PAGE gel. Proteins were blotted onto a NOVEX PVDF membrane by electrophoresis. The membranes were blocked with TBS-T blocking buffer (5% nonfat milk in 25 mM Tris-HCL, pH 7.4; 3 mM KCl; […] NaCl; and 0.05% Tween) and probed with primary antibodies (at a predetermined optimal concentration) overnight at 4° C. or for 1 hour at room temperature. […] After three washes with TBS-T, the proteins of interest were detected with ECL Western Blotting Detection Reagents and recorded with autoradiography (Pierce Biotech, Rockford, Ill., USA). […]
IR-SC WI38 (FIG. 4A) and RS4; 11 (FIG. 4B) cells were incubated with vehicle or increasing concentrations of compounds of Formula (I) or Formula (II) for 6 or 16 hours, at 1 μM (FIG. 4A) and 100 nm (FIG. 4B), respectively. […] After three washes with TBS-T, the proteins of interest were detected with ECL Western Blotting Detection Reagents and recorded with autoradiography. […]

Structures are written as SMILES.

T1 sequence (Q07817 whole entry): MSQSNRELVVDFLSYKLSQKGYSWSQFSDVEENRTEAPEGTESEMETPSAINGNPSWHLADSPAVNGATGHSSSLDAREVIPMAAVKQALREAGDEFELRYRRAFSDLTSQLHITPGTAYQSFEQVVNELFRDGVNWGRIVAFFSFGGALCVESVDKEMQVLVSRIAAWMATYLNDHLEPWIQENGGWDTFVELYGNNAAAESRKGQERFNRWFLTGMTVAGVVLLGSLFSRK

Consider `CC1(C)CCC(c2ccc(Cl)cc2)=C(CN2CCN(c3ccc(C(=O)NS(=O)(=O)c4ccc(N[C@H](CCN5CCN(C(=O)CCCn6cc(COCCOCCOCCNc7cccc8c7C(=O)N(C7CCC(=O)NC7=O)C8=O)nn6)CC5)CSc5ccccc5)c(S(=O)(=O)C(F)(F)F)c4)cc3)CC2)C1` (stereo partly drawn) [XZ-14439, 4-(4-((4′-chloro-4,4-dimethyl-3,4,5,6-tetrahydro-[1,1′-biphenyl]-2-yl)methyl)piperazin-1-yl)-N-((4-(((2R)-4-(4-(4-(4-((2-(2-(2-((2-(2,6-dioxopiperidin-3-yl)-1,3-dioxoisoindolin-4-yl)amino)ethoxy)ethoxy)ethoxy)methyl)-1H-1,2,3-triazol-1-yl)butanoyl)piperazin-1-yl)-1-(phenylthio)butan-2-yl)amino)-3-((trifluoromethyl)sulfonyl)phenyl)sulfonyl)benzamide], for which the “Bcl-xL depletion in IR-SC WI38 cells, dose and time dependence” value is reported as “depletes Bcl-xL”.

These data come from patent US20190054097A1, “COMPOSITIONS TARGETING SENESCENT CELLS AND THE USES THEREOF” (BioVentures, LLC, priority 2016, published 2019).
